ChEMBL document CHEMBL1201862, “PubChem BioAssay data set” (2004)
Active and inactive are the calls of the source.

Legend:
[1] = target: T1, Insulin-degrading enzyme (Homo sapiens, UniProt P14735); assay: activators of recombinant IDE enzyme, dose response, counter-screen for IDE activator project, biochemical, fluorescence polarization (AID 588681)
T1 sequence (P14735 whole entry): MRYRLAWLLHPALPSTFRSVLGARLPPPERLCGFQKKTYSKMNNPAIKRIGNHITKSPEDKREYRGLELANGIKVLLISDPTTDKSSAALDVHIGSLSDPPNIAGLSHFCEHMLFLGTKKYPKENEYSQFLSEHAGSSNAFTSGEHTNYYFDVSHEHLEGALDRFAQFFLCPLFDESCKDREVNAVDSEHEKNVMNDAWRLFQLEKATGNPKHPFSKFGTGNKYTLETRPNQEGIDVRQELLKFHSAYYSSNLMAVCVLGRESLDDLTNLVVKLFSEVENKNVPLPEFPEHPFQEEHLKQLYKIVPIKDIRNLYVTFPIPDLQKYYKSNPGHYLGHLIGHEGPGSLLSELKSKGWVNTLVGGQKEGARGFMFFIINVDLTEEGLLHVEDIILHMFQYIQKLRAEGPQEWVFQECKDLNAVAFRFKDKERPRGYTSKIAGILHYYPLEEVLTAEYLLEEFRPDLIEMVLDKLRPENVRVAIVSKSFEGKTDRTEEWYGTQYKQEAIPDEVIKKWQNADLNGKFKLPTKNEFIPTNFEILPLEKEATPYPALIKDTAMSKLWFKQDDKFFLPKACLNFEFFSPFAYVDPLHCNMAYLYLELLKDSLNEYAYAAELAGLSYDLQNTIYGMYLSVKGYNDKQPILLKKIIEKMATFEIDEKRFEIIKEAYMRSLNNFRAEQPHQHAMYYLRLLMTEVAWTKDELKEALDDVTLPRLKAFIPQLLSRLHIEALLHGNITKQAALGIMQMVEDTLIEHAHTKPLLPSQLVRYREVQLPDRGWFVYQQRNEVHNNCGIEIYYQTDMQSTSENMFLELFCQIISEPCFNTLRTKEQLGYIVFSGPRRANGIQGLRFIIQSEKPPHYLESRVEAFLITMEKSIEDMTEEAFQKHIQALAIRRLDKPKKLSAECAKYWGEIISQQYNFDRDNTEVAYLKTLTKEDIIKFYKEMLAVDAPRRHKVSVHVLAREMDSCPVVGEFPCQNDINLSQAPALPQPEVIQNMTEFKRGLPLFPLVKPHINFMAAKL

[2] = system: HeLa; assay: HeLa cell cytotoxicity, dose response, cytotoxicity control, 24 h, cherry-picked samples (AID 504726); assay type: functional, cell-based; conditions: Homo sapiens;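 further: potency for cytotoxicity as loss of luminescence signal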
[3] = system: HEK293; assay: optical interference in Abeta FP readout, dose response, artefact control for IDE activator project, biochemical, fluorescence polarization (AID 588442); assay type: functional, cell-based; conditions: Homo sapiens
[4] = system: HEK293; assay: HEK cell cytotoxicity by LDH release, dose response, cytotoxicity control for IDE activator project, fluorescence, HEK cells (AID 588440); assay type: functional, cell-based; conditions: Homo sapiens;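 further: cytotoxicity by LDH release measuring loss of membrane integrity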
[5] = target: T1, Insulin-degrading enzyme; assay: activators of endogenous IDE in HEK cells, dose response, cell-based, fluorescence polarization (AID 588439); assay type: functional
[6] = target: T2, ORF 73 (Human herpesvirus 8, UniProt O40947); assay: inhibitors of C-LANA binding to LBS DNA, dose response, biochemical, fluorescence polarization, cherry-picked samples (AID 504725); design: species or system Human gammaherpesvirus 8;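 further: fluorescence polarization of a labeled DNA duplex reporting LANA DNA binding; potency is for inhibitors that block LANA binding to the DNA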
T2 sequence (O40947 whole entry): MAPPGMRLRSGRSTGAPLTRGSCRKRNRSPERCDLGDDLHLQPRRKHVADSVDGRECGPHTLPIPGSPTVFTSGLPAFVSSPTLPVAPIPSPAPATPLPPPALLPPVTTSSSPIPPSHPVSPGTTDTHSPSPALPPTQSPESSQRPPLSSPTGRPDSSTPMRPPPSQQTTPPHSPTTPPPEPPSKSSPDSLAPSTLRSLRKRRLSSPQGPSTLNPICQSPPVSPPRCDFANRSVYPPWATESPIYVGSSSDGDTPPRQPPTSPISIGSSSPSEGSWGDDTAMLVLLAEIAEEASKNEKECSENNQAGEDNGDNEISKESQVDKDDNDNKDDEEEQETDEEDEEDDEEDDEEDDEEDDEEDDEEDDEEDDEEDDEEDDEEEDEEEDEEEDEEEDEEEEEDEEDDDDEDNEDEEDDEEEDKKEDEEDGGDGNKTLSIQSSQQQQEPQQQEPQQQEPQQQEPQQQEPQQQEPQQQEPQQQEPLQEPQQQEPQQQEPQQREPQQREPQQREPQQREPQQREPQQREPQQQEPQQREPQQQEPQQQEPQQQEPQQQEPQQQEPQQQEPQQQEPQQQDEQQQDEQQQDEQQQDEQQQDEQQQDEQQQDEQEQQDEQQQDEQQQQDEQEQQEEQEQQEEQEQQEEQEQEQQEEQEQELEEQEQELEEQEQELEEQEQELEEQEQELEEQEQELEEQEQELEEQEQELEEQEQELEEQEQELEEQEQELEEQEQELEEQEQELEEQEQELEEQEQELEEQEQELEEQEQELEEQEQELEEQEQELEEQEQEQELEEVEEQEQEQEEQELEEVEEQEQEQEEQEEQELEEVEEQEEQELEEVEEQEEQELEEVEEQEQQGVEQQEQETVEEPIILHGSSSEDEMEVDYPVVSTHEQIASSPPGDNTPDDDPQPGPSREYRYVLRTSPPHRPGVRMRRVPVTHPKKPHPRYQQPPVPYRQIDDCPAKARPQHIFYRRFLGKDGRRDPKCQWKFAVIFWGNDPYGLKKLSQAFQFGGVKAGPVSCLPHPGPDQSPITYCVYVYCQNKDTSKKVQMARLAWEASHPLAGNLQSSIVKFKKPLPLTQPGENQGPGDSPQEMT

[7] = target: Protein S100-A4 (Homo sapiens, UniProt P26447); assay: S100A4-myosin IIA binding inhibitor potency, dose response, biochemical, fluorescence polarization, cherry-picked hits (AID 687001); assay type: functional
Chain of Protein S100-A4 (P26447 whole entry): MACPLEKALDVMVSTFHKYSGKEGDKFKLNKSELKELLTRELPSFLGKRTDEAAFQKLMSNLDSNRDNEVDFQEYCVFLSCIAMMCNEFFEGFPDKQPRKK

[8] = target: Metabotropic glutamate receptor 3 (Rattus norvegicus, UniProt P31422); assay: mGlu3 negative allosteric modulator potency, dose response, HEK/GIRK cells, thallium flux, rat (AID 651839); assay type: functional
Chain of Metabotropic glutamate receptor 3 (P31422 whole entry): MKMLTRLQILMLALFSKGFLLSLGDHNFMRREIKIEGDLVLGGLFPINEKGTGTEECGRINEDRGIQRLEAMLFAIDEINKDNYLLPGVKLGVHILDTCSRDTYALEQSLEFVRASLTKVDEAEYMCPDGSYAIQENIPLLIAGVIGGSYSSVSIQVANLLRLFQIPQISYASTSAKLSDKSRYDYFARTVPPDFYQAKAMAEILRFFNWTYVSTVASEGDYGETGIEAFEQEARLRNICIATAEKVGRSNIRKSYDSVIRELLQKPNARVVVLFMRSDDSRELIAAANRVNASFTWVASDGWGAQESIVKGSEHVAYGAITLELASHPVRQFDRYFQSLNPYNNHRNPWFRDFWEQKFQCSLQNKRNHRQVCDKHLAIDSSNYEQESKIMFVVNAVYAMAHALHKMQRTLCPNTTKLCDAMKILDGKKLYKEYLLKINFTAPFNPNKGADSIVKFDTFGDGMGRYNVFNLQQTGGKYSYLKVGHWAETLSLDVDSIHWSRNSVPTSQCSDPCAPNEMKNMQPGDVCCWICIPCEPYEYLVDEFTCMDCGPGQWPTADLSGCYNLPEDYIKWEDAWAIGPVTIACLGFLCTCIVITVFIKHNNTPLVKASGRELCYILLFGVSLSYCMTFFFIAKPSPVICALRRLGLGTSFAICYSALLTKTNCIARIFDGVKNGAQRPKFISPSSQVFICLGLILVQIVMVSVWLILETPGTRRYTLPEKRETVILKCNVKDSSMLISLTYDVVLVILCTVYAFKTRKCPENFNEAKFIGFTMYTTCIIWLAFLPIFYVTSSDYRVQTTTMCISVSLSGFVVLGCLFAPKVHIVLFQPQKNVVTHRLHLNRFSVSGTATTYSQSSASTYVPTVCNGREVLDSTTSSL

[9] = LMP1-driven NF-kB reporter inhibition, dose response, cell-based, luciferase reporter, luminescence, dry powder, set 2 (AID 624376); assay type: functional
[10] = HEK293 cell viability, dose response, counter-screen for EBV LMP1 inhibitor project, dry powder, set 2 (AID 624374); assay type: functional
[11] = target: T3, Replicative DNA helicase DnaB (Mycobacterium tuberculosis, UniProt P9WMR3); assay: DnaB intein splicing inhibitors, dose response, biochemical, cell-free fluorescence (AID 449749); assay type: functional
T3 sequence (P9WMR3 whole entry): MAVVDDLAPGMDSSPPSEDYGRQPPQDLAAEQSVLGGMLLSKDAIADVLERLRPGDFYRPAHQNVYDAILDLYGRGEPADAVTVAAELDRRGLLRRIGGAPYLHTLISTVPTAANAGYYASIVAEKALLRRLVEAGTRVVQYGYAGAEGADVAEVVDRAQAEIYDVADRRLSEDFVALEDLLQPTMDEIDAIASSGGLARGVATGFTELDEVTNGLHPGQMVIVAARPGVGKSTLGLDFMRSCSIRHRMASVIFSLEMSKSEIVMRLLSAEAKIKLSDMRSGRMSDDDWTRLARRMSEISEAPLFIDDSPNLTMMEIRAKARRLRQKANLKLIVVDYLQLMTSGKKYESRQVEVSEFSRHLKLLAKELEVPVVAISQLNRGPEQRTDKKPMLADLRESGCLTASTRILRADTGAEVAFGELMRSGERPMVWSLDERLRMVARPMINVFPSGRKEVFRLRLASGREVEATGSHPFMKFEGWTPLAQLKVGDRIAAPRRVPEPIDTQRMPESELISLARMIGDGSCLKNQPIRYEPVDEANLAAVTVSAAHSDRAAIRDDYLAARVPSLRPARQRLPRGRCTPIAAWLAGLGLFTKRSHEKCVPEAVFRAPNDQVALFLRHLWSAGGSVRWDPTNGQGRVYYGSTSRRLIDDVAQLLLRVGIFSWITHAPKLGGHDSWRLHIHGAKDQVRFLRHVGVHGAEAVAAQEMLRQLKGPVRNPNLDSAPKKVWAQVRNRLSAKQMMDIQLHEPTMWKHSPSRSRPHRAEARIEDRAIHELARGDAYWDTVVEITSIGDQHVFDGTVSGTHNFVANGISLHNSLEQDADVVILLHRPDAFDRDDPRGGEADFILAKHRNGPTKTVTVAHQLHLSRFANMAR

[12] = target: T4, Protein RecA (Mycobacterium tuberculosis, UniProt P9WHJ3); assay: Fluorescence Cell-Free Homogeneous Dose Retest to Identify Inhibitors of RecA-Intein Splicing Activity. [Related pubchem assays (depositor defined):AID2097, AID2223, AID489010, AID492950]; assay type: functional
T4 sequence (P9WHJ3 whole entry): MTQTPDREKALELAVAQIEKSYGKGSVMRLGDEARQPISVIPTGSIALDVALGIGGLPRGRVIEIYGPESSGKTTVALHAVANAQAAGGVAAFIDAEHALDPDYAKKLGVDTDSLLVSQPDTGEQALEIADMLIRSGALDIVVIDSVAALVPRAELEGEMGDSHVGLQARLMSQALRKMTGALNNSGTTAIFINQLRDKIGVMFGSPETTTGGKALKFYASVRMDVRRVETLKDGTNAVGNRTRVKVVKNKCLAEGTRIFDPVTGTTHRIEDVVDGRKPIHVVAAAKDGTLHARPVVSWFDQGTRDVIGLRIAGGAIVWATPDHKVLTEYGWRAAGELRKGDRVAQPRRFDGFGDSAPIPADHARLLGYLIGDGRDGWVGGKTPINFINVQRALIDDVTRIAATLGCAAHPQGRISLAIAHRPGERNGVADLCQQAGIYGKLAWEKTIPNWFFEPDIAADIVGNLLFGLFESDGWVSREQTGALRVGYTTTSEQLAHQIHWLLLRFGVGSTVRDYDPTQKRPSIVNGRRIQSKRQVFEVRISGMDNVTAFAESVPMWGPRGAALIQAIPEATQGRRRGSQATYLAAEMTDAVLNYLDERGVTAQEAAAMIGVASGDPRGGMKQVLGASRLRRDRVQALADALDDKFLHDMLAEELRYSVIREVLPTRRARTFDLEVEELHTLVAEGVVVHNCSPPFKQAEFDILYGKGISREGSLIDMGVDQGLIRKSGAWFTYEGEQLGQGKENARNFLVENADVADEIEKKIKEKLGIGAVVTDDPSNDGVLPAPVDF

[13] = target: Tyrosyl-DNA phosphodiesterase 2 (Homo sapiens, UniProt O95551); assay: human TDP2 enzyme inhibitors, dose response, biochemical, epi absorbance, IC50 (AID 743297)
Chain of Tyrosyl-DNA phosphodiesterase 2 (O95551 whole entry): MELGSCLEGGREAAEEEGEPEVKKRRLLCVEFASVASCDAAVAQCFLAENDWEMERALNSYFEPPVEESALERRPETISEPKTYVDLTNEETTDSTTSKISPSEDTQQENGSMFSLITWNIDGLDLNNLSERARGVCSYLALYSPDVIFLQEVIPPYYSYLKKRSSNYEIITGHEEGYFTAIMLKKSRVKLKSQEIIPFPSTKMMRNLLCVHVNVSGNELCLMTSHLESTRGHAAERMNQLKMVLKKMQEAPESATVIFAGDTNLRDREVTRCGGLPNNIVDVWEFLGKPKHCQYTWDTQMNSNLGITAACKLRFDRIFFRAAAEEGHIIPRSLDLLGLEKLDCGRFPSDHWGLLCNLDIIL

[14] = A Cell-Based Confirmatory Screen for Compounds that Inhibit VEEV, TC-83 (8).; assay type: functional
[15] = Keap1 Kelch-Nrf2 peptide binding inhibitors, dose response, biochemical, fluorescence polarization, dry powder, set 3 (AID 651806)
[16] = target: Oxysterols receptor LXR-beta (Homo sapiens, UniProt P55055); assay type: functional, cell-based;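 further: agonist activity at LXR measured by a cell-based luminescence readout across a dose range, run as a counterscreen for daf-12 agonists; HEK293 cells with Gal4-LXR fusion and GAL4-driven luciferase reporter; potency for activation of Gal4-LXR reporter so compounds are agonists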
Chain of Oxysterols receptor LXR-beta (P55055 whole entry, the tested form may be a part): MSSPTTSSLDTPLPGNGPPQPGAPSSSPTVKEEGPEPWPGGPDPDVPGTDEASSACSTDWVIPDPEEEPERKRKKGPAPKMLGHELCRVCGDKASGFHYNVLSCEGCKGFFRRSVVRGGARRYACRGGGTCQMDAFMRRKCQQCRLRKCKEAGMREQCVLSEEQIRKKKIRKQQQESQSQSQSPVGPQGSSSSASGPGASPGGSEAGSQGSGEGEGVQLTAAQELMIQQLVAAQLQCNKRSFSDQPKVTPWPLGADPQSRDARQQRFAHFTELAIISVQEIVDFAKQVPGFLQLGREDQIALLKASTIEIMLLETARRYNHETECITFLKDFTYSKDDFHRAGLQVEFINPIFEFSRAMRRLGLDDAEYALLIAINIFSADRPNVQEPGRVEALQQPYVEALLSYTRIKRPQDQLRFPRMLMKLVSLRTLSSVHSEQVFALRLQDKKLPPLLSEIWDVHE

[17] = target: Albumin (Bos taurus, UniProt P02769); assay: Counterscreen for inhibitors of T-cell receptor (TCR)-CD3 interaction: Fluorescence-based biochemical high throughput dose response assay to identify inhibitors of T-cell receptor (TCR)-CD3 interaction using a TAMRA-labeled BSA probe.; assay type: functional
Chain of Albumin (P02769 whole entry): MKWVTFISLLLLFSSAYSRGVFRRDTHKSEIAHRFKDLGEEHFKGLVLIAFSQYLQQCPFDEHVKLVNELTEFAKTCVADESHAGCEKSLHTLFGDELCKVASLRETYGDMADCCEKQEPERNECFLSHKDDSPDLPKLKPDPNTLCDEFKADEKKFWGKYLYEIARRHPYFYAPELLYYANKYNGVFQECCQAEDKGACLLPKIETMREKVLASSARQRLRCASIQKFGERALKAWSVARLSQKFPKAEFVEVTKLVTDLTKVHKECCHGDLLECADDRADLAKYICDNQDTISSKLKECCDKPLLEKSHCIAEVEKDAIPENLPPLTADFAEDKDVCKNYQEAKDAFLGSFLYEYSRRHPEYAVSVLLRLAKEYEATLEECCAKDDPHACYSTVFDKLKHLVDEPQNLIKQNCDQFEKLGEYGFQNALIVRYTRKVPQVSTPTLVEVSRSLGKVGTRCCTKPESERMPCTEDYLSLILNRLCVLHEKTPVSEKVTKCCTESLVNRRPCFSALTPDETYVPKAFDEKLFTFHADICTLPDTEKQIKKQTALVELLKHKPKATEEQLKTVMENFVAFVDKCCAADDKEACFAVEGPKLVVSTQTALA

[18] = system: H9c2; assay: cells; assay type: functional, cell-based; conditions: Rattus norvegicus, H9c2, Myocardium;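 further: confirmatory concentration-response retest of ultra-high-throughput screening hits for modulation of myocardial damage; cell death induced by hydrogen peroxide oxidative stress; compound pretreatment for 60 min then peroxide exposure for 2 h; potency is for protecting the cells against peroxide damage rather than for killing them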
[19] = Late stage assay provider results from the probe development effort to identify selective inhibitors of heat shock protein 90 (HSP90): Absorbance-based cell proliferation assay in SKBR3 cells.; assay type: functional; conditions: SK-BR-3
[20] = Late stage assay provider results from the probe development effort to identify selective inhibitors of heat shock protein 90 (HSP90): Absorbance-based cell proliferation assay in MCF7 cells.; assay type: functional

Question: Which EC50 [1] does the source give for `COc1ccc2c3c(cccc13)C(=O)CC2` here?
Answer: > 54.7 µM (inactive)

Question: And the AC50 [2]?
Answer: 31.7 µM (active)

Question: What about the EC50 [3] of the same compound?
Answer: > 18.6 µM (inactive)

Question: What about the IC50 [4] of the same compound?
Answer: > 89.2 µM (inactive)

Question: What about the EC50 [5] of the same compound?
Answer: > 54.7 µM (inactive)

Question: And the AC50 [6]?
Answer: 6.76 µM (active)

Question: And the AC50 [7]?
Answer: 7.21 µM (active)

Question: With `COc1ccc(C#Cc2ccc(C(=O)N3CCC(OC)C3)cc2)cc1` (stereo not given) as the compound, how does the IC50 [8] read?
Answer: 10.7 µM (active)

Question: What does the source list for `CCC(=O)N1Cc2cc(C(=O)Nc3nccs3)nc(-c3cccc(-c4ccccc4OC)c3)c2[C@H]1CCO`?
Answer: AbsAC35 [9]: 49.1 µM; AbsAC35 [10]: 247.5 µM

Question: With `Cc1cc(=O)n(C2CCS(=O)(=O)C2)[nH]1` (stereo not given) as the compound, how does the AC50 [11] read?
Answer: 3.43 µM (active)

Question: What about the EC50 [12] of the same compound?
Answer: 1.91 µM (active)

Question: What about the IC50 [13] of the same compound?
Answer: > 128 µM (inactive)

Question: For `CN1CCN(C)/C(=N/c2ccc(F)cc2C(=O)Nc2ccccc2)C1`, which IC50 [14] is on record?
Answer: 6.39 µM (active)

Question: Which AC50 [15] does the source give for `O=C(O)Cc1ccccc1C(=O)N1CCc2ccccc2[C@H]1CN1C(=O)c2ccccc2C1=O` here?
Answer: 61.4 µM (active)

Question: Which EC50 [16] does the source give for `O=C(O)c1cc(-c2cccs2)[nH]n1` here?
Answer: > 67.6 µM (inactive)

Question: For `COC(=O)Cn1/c(=N/C(=O)c2cc(-c3cccs3)nc3ccccc23)sc2cc(S(N)(=O)=O)ccc21`, which IC50 [17] is on record?
Answer: > 94.1 µM (inactive)

Question: What about the IC50 [18] of the same compound?
Answer: 28.2 µM (active)

Question: Which IC50 [19] does the source give for `COc1ccccc1NC(=O)c1cc(=O)c(OC)c[nH]1` here?
Answer: > 100 µM (inactive)

Question: And the IC50 [20]?
Answer: > 100 µM (inactive)
